# Test results reported in ChEMBL document CHEMBL1201861, “Genomics of Drug Sensitity in Cancer screening data, Wellcome Trust Sanger Institute”.
# Tested on: COLO-800;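 also: growth inhibition of COLO-800 cells, read out with a cell viability assay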
# Experiment: cells
# Format: functional, cell-based, Homo sapiens
# Conditions: Homo sapiens, COLO-800
# Description: SANGER: Inhibition of human COLO-800 cell growth in a cell viability assay.
row,SMILES,IC50
1,COc1cc(-c2nn([C@H]3CC[C@H](N4CCN(C(C)=O)CC4)CC3)c3ncnc(N)c23)ccc1NC(=O)c1cc2ccccc2n1C,> 5.12 µM

# Tested on: COLO-829
# Experiment: cells
# Format: functional, cell-based, Homo sapiens
# Conditions: Homo sapiens, COLO-829
# Description: SANGER: Inhibition of human COLO-829 cell growth in a cell viability assay.
row,SMILES,IC50
1,COc1cc(-c2nn([C@H]3CC[C@H](N4CCN(C(C)=O)CC4)CC3)c3ncnc(N)c23)ccc1NC(=O)c1cc2ccccc2n1C,> 5.12 µM

# Tested on: CP66-MEL;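 also: growth inhibition of CP66-MEL cells determined in a cell viability assay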
# Experiment: cells
# Format: functional, cell-based, Homo sapiens
# Conditions: Homo sapiens, CP66-MEL
# Description: SANGER: Inhibition of human CP66-MEL cell growth in a cell viability assay.
row,SMILES,IC50
1,COc1cc(-c2nn([C@H]3CC[C@H](N4CCN(C(C)=O)CC4)CC3)c3ncnc(N)c23)ccc1NC(=O)c1cc2ccccc2n1C,> 5.12 µM

# Tested on: CTV-1;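 also: growth inhibition of the cell line, read out with a cell viability assay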
# Experiment: cells
# Format: functional, cell-based, Homo sapiens
# Conditions: Homo sapiens, CTV-1
# Description: SANGER: Inhibition of human CTV-1 cell growth in a cell viability assay.
row,SMILES,IC50
1,COc1cc(-c2nn([C@H]3CC[C@H](N4CCN(C(C)=O)CC4)CC3)c3ncnc(N)c23)ccc1NC(=O)c1cc2ccccc2n1C,< 0.02 µM

# Tested on: DSH1;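 also: growth inhibition of human DSH1 cells, measured with a cell viability readout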
# Experiment: cells
# Format: functional, cell-based, Homo sapiens
# Conditions: Homo sapiens, DSH1
# Description: SANGER: Inhibition of human DSH1 cell growth in a cell viability assay.
row,SMILES,IC50
1,COc1cc(-c2nn([C@H]3CC[C@H](N4CCN(C(C)=O)CC4)CC3)c3ncnc(N)c23)ccc1NC(=O)c1cc2ccccc2n1C,> 5.12 µM

# Tested on: EC-GI-10
# Experiment: cells
# Format: functional, cell-based, Homo sapiens
# Conditions: Homo sapiens, EC-GI-10
# Description: SANGER: Inhibition of human EC-GI-10 cell growth in a cell viability assay.
row,SMILES,IC50
1,COc1cc(-c2nn([C@H]3CC[C@H](N4CCN(C(C)=O)CC4)CC3)c3ncnc(N)c23)ccc1NC(=O)c1cc2ccccc2n1C,> 5.12 µM

# Tested on: ES1;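 also: growth inhibition of ES1 cells, read out with a cell viability assay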
# Experiment: cells
# Format: functional, cell-based, Homo sapiens
# Conditions: Homo sapiens, ES1
# Description: SANGER: Inhibition of human ES1 cell growth in a cell viability assay.
row,SMILES,IC50
1,COc1cc(-c2nn([C@H]3CC[C@H](N4CCN(C(C)=O)CC4)CC3)c3ncnc(N)c23)ccc1NC(=O)c1cc2ccccc2n1C,> 5.12 µM

# Tested on: ES7;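 also: growth inhibition of cultured human ES7 cells, read out as cell viability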
# Experiment: cells
# Format: functional, cell-based, Homo sapiens
# Conditions: Homo sapiens, ES7
# Description: SANGER: Inhibition of human ES7 cell growth in a cell viability assay.
row,SMILES,IC50
1,COc1cc(-c2nn([C@H]3CC[C@H](N4CCN(C(C)=O)CC4)CC3)c3ncnc(N)c23)ccc1NC(=O)c1cc2ccccc2n1C,> 5.12 µM

# Tested on: EW-18;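 also: growth inhibition of EW-18 cells, read out by a cell viability assay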
# Experiment: cells
# Format: functional, cell-based, Homo sapiens
# Conditions: Homo sapiens, EW-18
# Description: SANGER: Inhibition of human EW-18 cell growth in a cell viability assay.
row,SMILES,IC50
1,COc1cc(-c2nn([C@H]3CC[C@H](N4CCN(C(C)=O)CC4)CC3)c3ncnc(N)c23)ccc1NC(=O)c1cc2ccccc2n1C,> 5.12 µM

# Tested on: EOL1;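 also: growth inhibition of EoL-1 cells, read out by a cell viability assay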
# Experiment: cells
# Format: functional, cell-based, Homo sapiens
# Conditions: Homo sapiens, EOL1
# Description: SANGER: Inhibition of human EoL-1-cell cell growth in a cell viability assay.
row,SMILES,IC50
1,COc1cc(-c2nn([C@H]3CC[C@H](N4CCN(C(C)=O)CC4)CC3)c3ncnc(N)c23)ccc1NC(=O)c1cc2ccccc2n1C,4.55 µM

# Tested on: GB-1;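 also: growth of GB-1 cells judged by a viability assay, IC50 marks the concentration inhibiting growth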
# Experiment: cells
# Format: functional, cell-based, Homo sapiens
# Conditions: Homo sapiens, GB-1
# Description: SANGER: Inhibition of human GB-1 cell growth in a cell viability assay.
row,SMILES,IC50
1,COc1cc(-c2nn([C@H]3CC[C@H](N4CCN(C(C)=O)CC4)CC3)c3ncnc(N)c23)ccc1NC(=O)c1cc2ccccc2n1C,0.678 µM

# Tested on: GT3TKB;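 also: growth inhibition of the cell line, read out with a cell viability assay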
# Experiment: cells
# Format: functional, cell-based, Homo sapiens
# Conditions: Homo sapiens, GT3TKB
# Description: SANGER: Inhibition of human GT3TKB cell growth in a cell viability assay.
row,SMILES,IC50
1,COc1cc(-c2nn([C@H]3CC[C@H](N4CCN(C(C)=O)CC4)CC3)c3ncnc(N)c23)ccc1NC(=O)c1cc2ccccc2n1C,> 5.12 µM

# Tested on: HDLM-2;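 also: cell viability assay measuring suppression of HDLM-2 proliferation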
# Experiment: cells
# Format: functional, cell-based, Homo sapiens
# Conditions: Homo sapiens, HDLM-2
# Description: SANGER: Inhibition of human HDLM-2 cell growth in a cell viability assay.
row,SMILES,IC50
1,COc1cc(-c2nn([C@H]3CC[C@H](N4CCN(C(C)=O)CC4)CC3)c3ncnc(N)c23)ccc1NC(=O)c1cc2ccccc2n1C,> 5.12 µM

# Tested on: KLE;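 also: growth inhibition of human KLE cells, read out with a cell viability assay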
# Experiment: cells
# Format: functional, cell-based, Homo sapiens
# Conditions: Homo sapiens, KLE
# Description: SANGER: Inhibition of human KLE cell growth in a cell viability assay.
row,SMILES,IC50
1,COc1cc(-c2nn([C@H]3CC[C@H](N4CCN(C(C)=O)CC4)CC3)c3ncnc(N)c23)ccc1NC(=O)c1cc2ccccc2n1C,2.5 µM

# Tested on: KMOE-2;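 also: growth inhibition of human KMOE-2 cells, read out with a cell viability assay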
# Experiment: cells
# Format: functional, cell-based, Homo sapiens
# Conditions: Homo sapiens, KMOE-2
# Description: SANGER: Inhibition of human KMOE-2 cell growth in a cell viability assay.
row,SMILES,IC50
1,COc1cc(-c2nn([C@H]3CC[C@H](N4CCN(C(C)=O)CC4)CC3)c3ncnc(N)c23)ccc1NC(=O)c1cc2ccccc2n1C,> 5.12 µM

# Tested on: KNS-81-FD;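 also: growth inhibition of KNS-81-FD cells, read out with a cell viability assay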
# Experiment: cells
# Format: functional, cell-based, Homo sapiens
# Conditions: Homo sapiens, KNS-81-FD
# Description: SANGER: Inhibition of human KNS-81-FD cell growth in a cell viability assay.
row,SMILES,IC50
1,COc1cc(-c2nn([C@H]3CC[C@H](N4CCN(C(C)=O)CC4)CC3)c3ncnc(N)c23)ccc1NC(=O)c1cc2ccccc2n1C,> 5.12 µM

# Tested on: LAN-6;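 also: growth inhibition of LAN-6 cells, determined with a cell viability assay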
# Experiment: cells
# Format: functional, cell-based, Homo sapiens
# Conditions: Homo sapiens, LAN-6
# Description: SANGER: Inhibition of human LAN-6 cell growth in a cell viability assay.
row,SMILES,IC50
1,COc1cc(-c2nn([C@H]3CC[C@H](N4CCN(C(C)=O)CC4)CC3)c3ncnc(N)c23)ccc1NC(=O)c1cc2ccccc2n1C,> 5.12 µM

# Tested on: LB1047-RCC;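 also: inhibition of cell growth, determined with a cell viability assay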
# Experiment: cells
# Format: functional, cell-based, Homo sapiens
# Conditions: Homo sapiens, LB1047-RCC
# Description: SANGER: Inhibition of human LB1047-RCC cell growth in a cell viability assay.
row,SMILES,IC50
1,COc1cc(-c2nn([C@H]3CC[C@H](N4CCN(C(C)=O)CC4)CC3)c3ncnc(N)c23)ccc1NC(=O)c1cc2ccccc2n1C,0.143 µM

# Tested on: LS-123
# Experiment: cells
# Format: functional, cell-based, Homo sapiens
# Conditions: Homo sapiens, LS-123
# Description: SANGER: Inhibition of human LS-123 cell growth in a cell viability assay.
row,SMILES,IC50
1,COc1cc(-c2nn([C@H]3CC[C@H](N4CCN(C(C)=O)CC4)CC3)c3ncnc(N)c23)ccc1NC(=O)c1cc2ccccc2n1C,> 5.12 µM

# Tested on: LXF-289 cell line
# Experiment: cells
# Format: functional, cell-based, Homo sapiens
# Conditions: Homo sapiens, LXF-289
# Description: SANGER: Inhibition of human LXF-289 cell growth in a cell viability assay.
row,SMILES,IC50
1,COc1cc(-c2nn([C@H]3CC[C@H](N4CCN(C(C)=O)CC4)CC3)c3ncnc(N)c23)ccc1NC(=O)c1cc2ccccc2n1C,0.757 µM

# Tested on: MHH-NB-11;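 also: growth inhibition of human MHH-NB-11 cells, read out by a cell viability assay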
# Experiment: cells
# Format: functional, cell-based, Homo sapiens
# Conditions: Homo sapiens, MHH-NB-11
# Description: SANGER: Inhibition of human MHH-NB-11 cell growth in a cell viability assay.
row,SMILES,IC50
1,COc1cc(-c2nn([C@H]3CC[C@H](N4CCN(C(C)=O)CC4)CC3)c3ncnc(N)c23)ccc1NC(=O)c1cc2ccccc2n1C,> 5.12 µM

# Tested on: MHH-PREB-1;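 also: cell viability assay measuring inhibition of proliferation of human MHH-PREB-1 cells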
# Experiment: cells
# Format: functional, cell-based, Homo sapiens
# Conditions: Homo sapiens, MHH-PREB-1
# Description: SANGER: Inhibition of human MHH-PREB-1 cell growth in a cell viability assay.
row,SMILES,IC50
1,COc1cc(-c2nn([C@H]3CC[C@H](N4CCN(C(C)=O)CC4)CC3)c3ncnc(N)c23)ccc1NC(=O)c1cc2ccccc2n1C,4.85 µM

# Tested on: ML-2;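 also: growth inhibition of ML-2 cells, measured with a cell viability readout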
# Experiment: cells
# Format: functional, cell-based, Homo sapiens
# Conditions: Homo sapiens, ML-2
# Description: SANGER: Inhibition of human ML-2 cell growth in a cell viability assay.
row,SMILES,IC50
1,COc1cc(-c2nn([C@H]3CC[C@H](N4CCN(C(C)=O)CC4)CC3)c3ncnc(N)c23)ccc1NC(=O)c1cc2ccccc2n1C,> 5.12 µM

# Tested on: NB69;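 also: growth inhibition of NB69 cells, determined by a cell viability assay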
# Experiment: cells
# Format: functional, cell-based, Homo sapiens
# Conditions: Homo sapiens, NB69
# Description: SANGER: Inhibition of human NB69 cell growth in a cell viability assay.
row,SMILES,IC50
1,COc1cc(-c2nn([C@H]3CC[C@H](N4CCN(C(C)=O)CC4)CC3)c3ncnc(N)c23)ccc1NC(=O)c1cc2ccccc2n1C,3.29 µM
